From ChEMBL document CHEMBL1201862, “PubChem BioAssay data set” (2004)
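Growth conditions: 96-well plates. Treatment: test compound, 48 hours, 5 concentrations. Analysis: linear interpolation between bracketing concentrations; unreached endpoints set to highest concentration. GI50 is the concentration that inhibits growth by half.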 Activity calls are given as the source filed them. Rule as the data show it: active = GI50 up to about 1.1 µM and inactive = higher.

Experiments:
Experiment in all cases: NCI tumour cell line growth inhibition, 48 h
[1] = system: RPMI-8226
[2] = system: SK-OV-3
[3] = system: IGROV-1
[4] = system: HCT-15
[5] = system: SK-MEL-5
[6] = system: SNB-19
[7] = system: COLO 205
[8] = system: MDA-MB-231
[9] = system: KM12
[10] = system: UO-31
[11] = system: SW-620
[12] = system: Hs-578T
[13] = system: CCRF-CEM
[14] = system: NCI-H460
[15] = system: HCC 2998
[16] = system: XF498
[17] = system: CAKI-1
[18] = system: OVCAR-3
[19] = system: KM-20L2
[20] = system: HOP-18

| SMILES | GI50 [1] | GI50 [2] | GI50 [3] | GI50 [4] [µM] | GI50 [5] | GI50 [6] | GI50 [7] | GI50 [8] | GI50 [9] | GI50 [10] | GI50 [11] | GI50 [12] | GI50 [13] | GI50 [14] | GI50 [15] | GI50 [16] | GI50 [17] | GI50 [18] | GI50 [19] | GI50 [20] |
| --- | --- | --- | --- | --- | --- | --- | --- | --- | --- | --- | --- | --- | --- | --- | --- | --- | --- | --- | --- | --- |
| CC(=O)Nc1ccc(Sc2nnc(NC(C)=O)s2)cc1 | > 100 µM (inactive) | > 100 µM (inactive) | > 100 µM (inactive) | > 100 | > 100 µM (inactive) | > 100 µM (inactive) | > 100 µM (inactive) | > 100 µM (inactive) | > 100 µM (inactive) | > 100 µM (inactive) | > 100 µM (inactive) | > 100 µM (inactive) | > 100 µM (inactive) | > 100 µM (inactive) | > 100 µM (inactive) |  |  |  |  |  |
| N#CCCN(CCC#N)c1ccc(/C=C(/NC(=O)Nc2ccccc2Cl)NC(=O)c2cc([N+](=O)[O-])ccc2Cl)cc1 | 52.4 µM (inactive) | > 100 µM (inactive) | > 100 µM (inactive) | > 100 | > 100 µM (inactive) | > 100 µM (inactive) | > 100 µM (inactive) |  | > 100 µM (inactive) | 55.7 µM (inactive) | > 100 µM (inactive) |  | 17.3 µM (inactive) |  | > 100 µM (inactive) | > 100 µM (inactive) | > 100 µM (inactive) | > 100 µM (inactive) | > 100 µM (inactive) | > 100 µM (inactive) |
